PubChem BioAssay (NCI)
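A five-concentration, 48-hour dose response in 96-well plates underlies each endpoint, interpolated linearly between surrounding concentrations. GI50 is the concentration that inhibits growth by half. TGI marks complete inhibition of growth.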

What was measured:
Experiment in all cases: growth of human tumour cells (NCI), 48 h
SK-MEL-5 melanoma = tested on: SK-MEL-5 melanoma
SN12C renal = tested on: SN12C renal
EKVX NSCLC = tested on: EKVX NSCLC
HCT-116 colon = tested on: HCT-116 colon
SNB-75 CNS = tested on: SNB-75 CNS
RXF 393 renal = tested on: RXF 393 renal
ACHN renal = tested on: ACHN renal
SNB-19 CNS = tested on: SNB-19 CNS
A498 renal = tested on: A498 renal
T-47D breast = tested on: T-47D breast

Structure (SMILES) | TGI (SK-MEL-5 melanoma) | TGI (SN12C renal) | TGI (EKVX NSCLC) | TGI (HCT-116 colon) | TGI (SNB-75 CNS) | TGI (RXF 393 renal) | TGI (ACHN renal) | TGI (SNB-19 CNS) | TGI (A498 renal) | GI50 (SK-MEL-5 melanoma) | GI50 (SN12C renal) | GI50 (T-47D breast) | TGI (T-47D breast) | GI50 (HCT-116 colon) | GI50 (SNB-75 CNS) | GI50 (RXF 393 renal) | GI50 (A498 renal) | GI50 (ACHN renal) | GI50 (SNB-19 CNS) | GI50 (EKVX NSCLC)
COc1cc(/C=C(\C#N)C(=O)c2ccccc2)cc(OC)c1OC | > 100 µM | > 100 µM | > 100 µM | > 100 µM | > 100 µM | 96.8 µM | > 100 µM | > 100 µM | – | – | – | – | – | – | – | – | – | – | – | –
O=C(NC(=Nc1ccccc1)SCCSC(=Nc1ccccc1)NC(=O)c1ccccc1)c1ccccc1 | > 100 µM | > 100 µM | > 100 µM | > 100 µM | > 100 µM | 95.6 µM | > 100 µM | > 100 µM | > 100 µM | – | – | – | – | – | – | – | – | – | – | –
Cc1nc2ccccc2c(=O)n1/N=C(\N=Nc1ccc(Cl)cc1)c1ccc(N(C)C)cc1 | > 100 µM | > 100 µM | > 100 µM | > 100 µM | – | > 100 µM | > 100 µM | > 100 µM | > 100 µM | – | – | – | – | – | – | – | – | – | – | –
N=C(N)c1ccc(-c2ccc(-c3cccs3)s2)cc1F | 2.69 µM | 3.69 µM | – | 2.37 µM | 2.66 µM | 2.64 µM | 2.93 µM | 3.65 µM | 0.621 µM | 1.27 µM | 1.63 µM | 1.49 µM | 3.48 µM | 0.922 µM | 1.34 µM | 1.25 µM | 0.156 µM | 1.45 µM | 1.77 µM | –
O=C1N(c2ccccc2)C2(O)C(=O)c3ccccc3C2(O)N1c1ccccc1 (configuration not stated) | > 100 µM | > 100 µM | > 100 µM | > 100 µM | > 100 µM | > 100 µM | > 100 µM | > 100 µM | > 100 µM | – | – | – | – | – | – | – | – | – | – | –
N#CC1(C2CC(=O)N(c3ccccc3)C2=O)CCCCC1=O (configuration not stated) | > 100 µM | > 100 µM | > 100 µM | – | > 100 µM | > 100 µM | > 100 µM | > 100 µM | – | – | – | – | – | – | – | – | – | – | – | –
COC(=O)[C@@H](C)C[C@H](Cc1ccccc1)NC(=O)c1nc([C@@H](C[C@H](C(C)C)N(C)C(=O)[C@@H](NC(=O)[C@H]2CC(=O)CCN2C)C(C)C)OC(C)=O)sc1C(C)C | 1.76 µM | > 16.7 µM | > 16.7 µM | 3.04 µM | > 15 µM | – | > 16.7 µM | > 16.7 µM | 0.818 µM | 0.0869 µM | 0.462 µM | 0.08 µM | > 16.7 µM | 0.169 µM | 0.0518 µM | – | 0.0826 µM | 0.794 µM | 0.183 µM | 0.953 µM
CC(=O)NNc1nc(C)c(C(=O)NNC(=O)C(=O)Nc2ccc(C)cc2[N+](=O)[O-])s1 | > 100 µM | > 100 µM | > 100 µM | > 100 µM | > 100 µM | > 100 µM | > 100 µM | > 100 µM | > 100 µM | – | – | – | – | – | – | – | – | – | – | –
N/C(=N\O)c1cn(C2OC(CO)C(O)C2O)c2ncnc(N)c12 (configuration not stated) | 0.356 µM | > 36.1 µM | – | > 100 µM | 6.17 µM | 0.722 µM | > 35.9 µM | > 100 µM | 0.555 µM | 0.183 µM | 0.152 µM | 0.108 µM | – | 0.0633 µM | 0.18 µM | 0.169 µM | 0.14 µM | 0.0764 µM | 0.301 µM | –
Cc1cc2c(=O)cc(-c3ccncc3)oc2c(C(N)=O)c1C | – | > 100 µM | > 100 µM | > 100 µM | > 100 µM | > 100 µM | > 100 µM | > 100 µM | – | – | – | – | – | – | – | – | – | – | – | –
Cc1cc(Br)ccc1N=NC1C(=O)ON=C1c1ccccc1 (configuration not stated) | > 100 µM | > 100 µM | > 100 µM | > 100 µM | > 100 µM | > 100 µM | > 100 µM | > 100 µM | > 100 µM | – | – | – | – | – | – | – | – | – | – | –
CC(=O)Nc1ccc(/C=C/C(=O)c2sc(-n3nc(-c4ccccc4)cc3-c3ccccc3)nc2C)cc1 | > 100 µM | > 100 µM | > 100 µM | > 100 µM | > 100 µM | > 100 µM | > 100 µM | > 100 µM | > 100 µM | – | > 100 µM | – | – | > 100 µM | > 100 µM | > 100 µM | > 100 µM | > 100 µM | > 100 µM | > 100 µM
COc1cc(Br)c(C2OCCCO2)cc1OCc1ccccc1 | > 100 µM | > 100 µM | > 100 µM | > 100 µM | > 100 µM | > 100 µM | > 100 µM | > 100 µM | > 100 µM | – | – | – | – | – | – | – | – | – | – | –
CC1CC(=O)C(CC(=O)O)[C@H]1C(C(=O)C(=O)Nc1cc(Cl)ccc1Cl)[N+](=O)[O-] (some centres not stated) | > 100 µM | > 100 µM | > 100 µM | – | > 100 µM | > 100 µM | > 100 µM | > 100 µM | > 100 µM | – | – | – | – | – | – | – | – | – | – | –
CC(=O)O[C@@H]1[C@H]2O[C@H]2[C@H]2O[C@@]2(COC(=O)c2ccccc2)[C@H]1OC(C)=O | > 100 µM | > 100 µM | > 100 µM | > 100 µM | > 100 µM | – | > 100 µM | > 100 µM | > 100 µM | – | – | – | > 100 µM | – | – | – | – | – | – | –
CCC[CH2][Sn]1([CH2]CCC)[O]C(=O)c2cccnc2[S]1 | 17 µM | 13.2 µM | 11.9 µM | 17.9 µM | 7.82 µM | 3.2 µM | 11.7 µM | 19.5 µM | 5.3 µM | 4.96 µM | 3.8 µM | – | – | 5.56 µM | 2.54 µM | 1.66 µM | 2.37 µM | 3.51 µM | 6.88 µM | 2.46 µM
O=c1[nH]c2c(ccc3cnccc32)c2c1CCC2 | 0.517 µM | > 100 µM | > 100 µM | > 45.8 µM | 1.4 µM | – | > 100 µM | > 100 µM | 0.553 µM | 0.196 µM | 0.365 µM | 0.352 µM | > 100 µM | 0.267 µM | 0.324 µM | – | 0.155 µM | 0.279 µM | 0.356 µM | 1.47 µM
COc1ccc(Cc2c3cc(OC)c(OC)cc3cc[n+]2C)cc1 | > 62.2 µM | > 28.3 µM | > 59 µM | > 24.8 µM | 34.6 µM | > 42 µM | > 49.9 µM | > 31.4 µM | > 100 µM | – | – | – | – | – | – | – | – | – | – | –
